# Assay results from patent publication US8168654B2 (priority 2003, dated 2012).
# Where a name gives a salt, the structure may show the parent alone.
# Biological target: T1, human muscarinic acetylcholine M3 receptor (Homo sapiens, UniProt P20309)
# T1 construct: expressed in transfected cells; host or cells: CHO cells, stably transfected; membranes
# Experiment: biochemical
# Format: binding
# T1 sequence (P20309 whole entry): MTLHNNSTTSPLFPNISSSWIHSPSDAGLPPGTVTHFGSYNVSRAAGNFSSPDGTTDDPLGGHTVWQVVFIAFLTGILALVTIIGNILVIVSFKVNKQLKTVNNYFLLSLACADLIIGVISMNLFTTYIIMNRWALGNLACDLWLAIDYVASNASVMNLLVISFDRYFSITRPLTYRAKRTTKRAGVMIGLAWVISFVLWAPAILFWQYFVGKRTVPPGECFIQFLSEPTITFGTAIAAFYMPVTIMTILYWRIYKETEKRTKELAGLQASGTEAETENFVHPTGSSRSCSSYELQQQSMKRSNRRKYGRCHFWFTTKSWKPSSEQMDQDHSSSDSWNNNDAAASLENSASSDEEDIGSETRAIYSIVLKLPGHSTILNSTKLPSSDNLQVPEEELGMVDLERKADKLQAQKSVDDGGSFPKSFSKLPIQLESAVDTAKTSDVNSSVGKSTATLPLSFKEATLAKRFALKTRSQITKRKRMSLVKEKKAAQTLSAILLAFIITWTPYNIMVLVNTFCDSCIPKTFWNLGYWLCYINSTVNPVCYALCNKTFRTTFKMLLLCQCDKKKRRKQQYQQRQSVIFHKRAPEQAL
row,SMILES,Ki
1,"O=C(Cc1ccccc1)NCCC[N+]12CCC(CC1)[C@@H](OC(=O)C(O)(c1ccccc1)c1ccccc1)C2 [Example 34, (R)-3-(2-Hydroxy-2,2-diphenyl-acetoxy)-1-(3-phenylacetylamino-propyl)-1-azonia-bicyclo[2.2.2]octane trifluoroacetate]",2.3 nM
2,"O=C(C[N+]12CCC(CC1)[C@@H](OC(=O)C(O)(c1ccccc1)c1ccccc1)C2)Nc1ccccc1 [Example 52, (R)-3-(2-Hydroxy-2,2-diphenyl-acetoxy)-1-phenylcarbamoylmethyl-1-azonia-bicyclo[2.2.2]octane]",1.9 nM
3,"O=C(C[N+]12CCC(CC1)[C@@H](OC(=O)C(O)(c1cccs1)c1cccs1)C2)Nc1ccccc1 [Example 76, (R)-3-(2-Hydroxy-2,2-di-thiophen-2-yl-acetoxy)-1-phenylcarbamoylmethyl-1-azonia-bicyclo[2.2.2]octane trifluoroacetate]",1.1 nM
4,"O=C(C[N+]12CCC(CC1)[C@@H](OC(=O)C(O)(c1ccccc1)c1ccccc1)C2)NCCc1cccs1 [Example 96, (R)-3-(2-Hydroxy-2,2-diphenyl-acetoxy)-1-[(2-thiophen-2-yl-ethylcarbamoyl)-methyl]-1-azonia-bicyclo[2.2.2]octane trifluoroacetate]",4.6 nM
5,"O=C(NCC[N+]12CCC(CC1)[C@@H](OC(=O)C(O)(c1ccccc1)c1ccccc1)C2)c1cnccn1 [Example 138, (R)-3-(2-Hydroxy-2,2-diphenyl-acetoxy)-1-(2-[{pyrazine-2-carbonyl)-amino]-ethyl}-1-azonia-bicyclo[2.2.2]octane trifluoroacetate]",2.2 nM
6,"O=C(C[N+]12CCC(CC1)[C@@H](OC(=O)C(O)(c1cccs1)c1cccs1)C2)Nc1cnccn1 [Example 159, (R)-3-(2-Hydroxy-2,2-di-thiophen-2-yl-acetoxy)-1-(pyrazin-2-ylcarbamoylmethyl)-1-azonia-bicyclo[2.2.2]octane bromide]",0.7 nM
7,"O=C(NCC[N+]12CCC(CC1)[C@@H](OC(=O)C(O)(c1ccccc1)c1ccccc1)C2)C1(O)CC1 [Example 221, (R)-1-[2-[(1-Hydroxy-cyclo-propanecarbonyl)-amino]-ethyl]-3-(2-hydroxy-2,2-diphenyl-acetoxy)-1-azonia-bicyclo[2.2.2]-octane hexafluorophosphate]",1.3 nM
8,"O=C(C[N+]12CCC(CC1)[C@@H](OC(=O)C(O)(c1ccccc1)c1ccccc1)C2)Nc1ccon1 [Example 242, (R)-3-(2-Hydroxy-2,2-diphenyl-acetoxy)-1-(isoxazol-3ylcarbamoylmethyl)-1-azonia-bicyclo[2.2.2]octane bromide]",0.3 nM
9,"O=C(C[N+]12CCC(CC1)[C@@H](OC(=O)C(O)(c1cccs1)c1cccs1)C2)Nc1ccncn1 [Example 244, (R)-3-(2-Hydroxy-2,2-di-thiophen-2-yl-acetoxy)-1-(pyrimidin-4-ylcarbamoylmethyl)-1-azonia-bicyclo[2.2.2]octane bromide]",0.3 nM
